US5650411A, “Substituted azolone derivatives” (Janssen Pharmaceutica N.V., priority 1993, dated 1997)
Values after ≈ are worked out from the molar mass of the structure shown. Counter-ions that a name gives are not always drawn.

system: Helicobacter pylori; experiment: Minimal inhibitory concentration (MIC) against Helicobacter pylori, urease read-out, 5 clinical strains; type: cell-based; conditions: 5 H. pylori clinical strains, 10% blood agar, 48 h at 37° C., microaerophilic, read-out: MIC
Description: The anti-Helicobacter activity of the subject compounds was assessed by the following in-vitro test procedure.
The activity of test compounds against Helicobacter pylori was determined against a standard set of 5 H. priori strains obtained from clinical material. Minimal inhibitory concentrations (MICs) were determined by measuring the activity of H. pylori urease after treatment of growing cultures of the bacteria with the antimicrobial agents.
The test compounds were dissolved in DMSO at a concentration of 10^-3 M. A dilution to 10^-4 M in DMSO was also prepared. 10 μl volumes of these solutions were pipetted in the wells of Repli-Dishes (®Sterilin). Wells containing DMSO alone were included as controls in each Repli-Dish. Ampicillin ((+)-6-[(2-amino-2-phenylacetyl)amino]-3,3-dimethyl-7-oxo-4-thia-1-azabicyclo[3.2.0]heptane-2-carboxylic acid trihydrate) and metronidazole (2-methyl-5-nitro-1H-imidazol-1-ethanol) were included as reference compounds in each batch of tests. (These compounds were tested at final concentrations of 10^-5, 10^-6, 10^-7 and 10^-8 M). Test plates were stored at 4° C. until used. The five isolates of H. pylori were maintained by subculture on 10% blood agar every 2 or 3 days. The bacteria were grown at 37° C. under an atmosphere containing 5% oxygen, 10% CO2 and 85% nitrogen. Suspensions of Helicobacter pylori for inoculum were prepared in Brain-heart infusion broth and adjusted to an absorbance of 1.5±0.3 at […].
Freshly prepared 10% blood agar held at 45° C. was added in 1 ml volumes to the wells of the test plates, thus diluting the test compounds to 10^-5 and 10^-6 M. The medium was allowed to cool, then 10 μl volumes of bacterial suspension were pipetted on the agar surface. The plates were incubated for 48 h at 37° C. under the microaerophilic atmosphere described above. […] After the 48 h of incubation, 1 ml volumes of urease broth were gently added to each Repli-Dish well and the plates were incubated at 37° C. for 2 h. 100 μl samples of fluid from each well were then pipetted into the wells of 96-place microdilution plates. A purple colour was interpreted as growth, yellow-orange as no growth of H. pylori. By this means a clear end-point was obtained, from which the inhibitory effects could be determined.
Table 1 summarizes the MIC values determined by the above procedure for a subset of the subject compounds.

| MIC | SMILES |
| --- | --- |
| 1 µM | Cc1cc(N2CCN(c3ccc(-n4c(C)nn([C@H](C)[C@H](O)c5ccc(Cl)cc5Cl)c4=O)cc3)CC2)cc(C)c1O (single isomer, unassigned) [compound 32, (+)-(R*,R*)-2-[2-(2,4-dichlorophenyl)-2-hydroxy-1-methylethyl]-2,4-dihydro-4-[4-[4-(4-hydroxy-3,5-dimethylphenyl)-1-piperazinyl]phenyl]-5-methyl-3H-1,2,4-triazol-3-one dihydrate] |
| 1 µM (≈ 0.579 µg/mL) | Cc1nn(C(C)(C)C(O)c2ccc(Br)cc2)c(=O)n1-c1ccc(N2CCN(c3ccc(O)cc3)CC2)cc1 (racemic) [compound 22, (±)-2-[2-(4-bromophenyl)-2-hydroxy-1,1-dimethylethyl]-2,4-dihydro-4-[4-[4-(4-hydroxyphenyl)-1-piperazinyl]phenyl]-5-methyl-3H-1,2,4-triazol-3-one] |
| 0.1 µM (≈ 0.0519 µg/mL) | CCC(C(=O)c1ccc(Cl)cc1)n1ncn(-c2ccc(N3CCN(c4ccc(O)cn4)CC3)cc2)c1=O (racemic) [compound 27, (±)-2-[1-(4-chlorobenzoyl)propyl]-2,4-dihydro-4-[4-[4-(5-hydroxy-2-pyridinyl)-1-piperazinyl]phenyl]-3H-1,2,4-triazol-3-one] |
| 1 µM (≈ 0.532 µg/mL) | CCC(C(=O)c1ccc(Cl)cc1)n1ncn(-c2ccc(N3CCN(c4ccc(OC)cc4)CC3)cc2)c1=O (single isomer, unassigned; (+)) [compound 31, (+)-(A)-2-[1-(4-chlorobenzoyl)propyl]-2,4-dihydro-4-[4-[4-(4-methoxyphenyl)-1-piperazinyl]phenyl]-3H-1,2,4-triazol-3-one] |
| 1 µM (≈ 0.549 µg/mL) | CC(C(O)c1ccc(Br)cc1)n1ccn(-c2ccc(N3CCN(c4ccc(O)cc4)CC3)cc2)c1=O (centres unmarked) [compound 9, [A]+[B]-1-[2-(4-bromophenyl)-2-hydroxy-1-methylethyl]-1,3-dihydro-3-[4-[4-(4-hydroxyphenyl)-1-piperazinyl]phenyl]-2H-imidazol-2-one] |
| 10 µM (≈ 5.56 µg/mL) | Cc1nn(CC(O)c2ccc(OC(F)(F)F)cc2)c(=O)n1-c1ccc(N2CCN(c3ccc(O)cc3)CC2)cc1 (racemic) [compound 36, (±)-2,4-dihydro-4-[4-[4-(4-hydroxyphenyl)-1-piperazinyl]phenyl]-2-[2-hydroxy-2-[4-(trifluoromethoxy)-phenyl]ethyl]-5-methyl-3H-1,2,4-triazol-3-one] |
| 0.1 µM (≈ 0.0593 µg/mL) | CCC(C)(C(O)c1ccc(Br)cc1)n1nc(C)n(-c2ccc(N3CCN(c4ccc(O)cc4)CC3)cc2)c1=O (racemic) [compound 13, (±)-2-[1-[(4-bromophenyl)hydroxymethyl]-1-methylpropyl]-2,4-dihydro-4-[4-[4-(4-hydroxyphenyl)-1-piperazinyl]phenyl]-5-methyl-3H-1,2,4-triazol-3-one] |
| 0.1 µM (≈ 0.0521 µg/mL) | CCC(C(O)c1ccc(Cl)cc1)n1ncn(-c2ccc(N3CCN(c4ccc(O)cc4)CC3)nc2)c1=O (racemic) [compound 14, (±)-2-[1-[(4-chlorophenyl)hydroxymethyl]propyl]-2,4-dihydro-4-[6-[4-(4-hydroxyphenyl)-1-piperazinyl]-3-pyridinyl]-3H-1,2,4-triazol-3-one] |
| 0.1 µM (≈ 0.0533 µg/mL) | CCC(C(=O)c1ccc(Cl)cc1)n1ncn(-c2ccc(N3CCN(c4ccc(OC)nc4)CC3)cc2)c1=O (racemic) [compound 6, (±)-2-[1-(4-chlorobenzoyl)propyl]-2,4-dihydro-4-[4-[4-(6-methoxy-3-pyridinyl)-1-piperazinyl]phenyl]-3H-1,2,4-triazol-3-one] |
| ≤ 0.001 µM | CCC(C(=O)c1ccc(Cl)cc1)n1ncn(-c2ccc(N3CCN(c4ccc(OC)c(OC)c4)CC3)nc2)c1=O (racemic) [compound 48, (±) -2-[1-(4-chlorobenzoyl)propyl]-4-[6-[4-(3,4-dimethoxyphenyl)-1-piperazinyl]-3-pyridinyl]-2,4-dihydro-3H-1,2,4-triazol-3-one dihydrochloride] |
| 10 µM (≈ 5.33 µg/mL) | CCC(C(=O)c1ccc(Cl)cc1)n1ncn(-c2ccc(N3CCN(c4ccc(OC)cc4)CC3)cn2)c1=O (racemic) [compound 2, (±)-2-[1-(4-chlorobenzoyl)propyl]-2,4-dihydro-4-[5-[4-(4-methoxyphenyl)-1-piperazinyl]-2-pyridinyl]-3H-1,2,4-triazol-3-one] |
| 0.1 µM (≈ 0.0519 µg/mL) | CCC(C(=O)c1ccc(Cl)cc1)n1ncn(-c2ccc(N3CCN(c4ccccc4O)CC3)nc2)c1=O (racemic) [compound 29, (±)-2-[1-(4-chlorobenzoyl)propyl]-2,4-dihydro-4-[6-[4-(2-hydroxyphenyl)-1-piperazinyl]-3-pyridinyl]-3H-1,2,4-triazol-3-one] |
| 0.1 µM (≈ 0.0534 µg/mL) | CCC(C(=O)c1ccc(Cl)cc1)n1ncn(-c2ccc(N3CCN(c4ccc(OC)cn4)CC3)nc2)c1=O (racemic) [compound 37, (±)-2-[1-(4-chlorobenzoyl)propyl]-2,4-dihydro-4-[6-[4-(5-methoxy-2-pyridinyl) -1-piperazinyl]-3-pyridinyl]-3H-1,2,4-triazol-3-one] |

same assay, conditions: 48 h

| SMILES | MIC |
| --- | --- |
| CC(C(=O)c1ccc(Br)cc1)n1ncn(-c2ccc(N3CCN(c4ccc(O[Si](C)(C)C(C)(C)C)cc4)CC3)cc2)c1=O (centres unmarked) [compound 47, 2-[1-(4-bromobenzoyl)ethyl]-4-[4-[4-[4-[[(1,1-dimethylethyl)dimethylsilyl]oxy]phenyl]-1-piperazinyl]phenyl]-2,4-dihydro-3H-1,2,4-triazol-3-one] | 1 µM (≈ 0.663 µg/mL) |
